Assay results from patent US20250034194A1, “INHIBITORS OF ABNORMAL PHOSPHORYLATION AND TAU PROTEIN AGGREGATION” (UNIVERSITE DE PICARDIE JULES VERNE, priority 2021, published 2025).

What was measured:
[1] = target: T1, tau protein (4R2N isoform, 441 amino acids) (Homo sapiens, UniProt P10636); experiment: Induction of tau protein aggregation, Thioflavin T incorporation; assay type: biochemical; details: tau 0.71 mg/mL, compound 0.175 mg/mL (mass ratio 4/1); up to 72 h
T1 construct: purchased Tebu-bio (custom synthesized)
T1 sequence (P10636 1-441 isoform P10636-8): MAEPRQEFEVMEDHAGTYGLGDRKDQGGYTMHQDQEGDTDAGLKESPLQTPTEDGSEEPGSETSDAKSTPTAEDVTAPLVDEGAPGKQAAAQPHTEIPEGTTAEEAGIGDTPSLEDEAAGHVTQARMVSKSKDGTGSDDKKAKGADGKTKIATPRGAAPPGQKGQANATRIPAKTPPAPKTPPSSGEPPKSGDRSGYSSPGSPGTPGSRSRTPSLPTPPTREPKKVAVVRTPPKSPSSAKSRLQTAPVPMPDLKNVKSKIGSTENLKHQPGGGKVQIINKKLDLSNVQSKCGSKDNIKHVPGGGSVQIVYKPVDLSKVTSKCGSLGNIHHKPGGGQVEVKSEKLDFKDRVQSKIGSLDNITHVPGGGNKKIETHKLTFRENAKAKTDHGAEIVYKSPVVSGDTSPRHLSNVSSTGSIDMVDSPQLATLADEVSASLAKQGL
Description: The ability of the 16-carbon disulphated maltobionamide compound “Mal16diS” to induce tau protein aggregation, another step in the occurrence of neurofibrillary tangles, was evaluated. Thus, the ability of this molecule to induce or inhibit the aggregation of tau in vitro (FIG. 10) was evaluated in a test described in the article by Sui et al, 2015 in which tau aggregation is monitored by the incorporation of Thioflavin T (ThT). […]
100 μL of ThT (Sigma-Aldrich) at 50 μM is immediately added to each well, then the plate is incubated at 37° C. with stirring. Monitoring the formation of tau protein aggregates is possible by monitoring the incorporation of thioflavin leading to its fluorescence emission and is carried out by reading at 0, 24, 40, 48 and 71 h at Exc wavelength 450 nm/Em wavelength 510 nm, by means of an Infinite M1000 spectrofluorometer (Tecan).

[2] = test system: tau phosphorylation (S262 site) in SH-SY5Y cells; experiment: In cellulo tau phosphorylation test in the SH-SY5Y line (H2O2 stress induction); assay type: cell-based; details: 24 hours, then H2O2
Description: The tau phosphorylation induction model on the SH-SY5Y cell line described in the Gly-CRRET laboratory article was used here (Sepulveda-Diaz et al., 2015).
In short, SH-SY5Y cells are seeded in 6-well plates and differentiated using retinoic acid (10 μM, Sigma Aldrich) for 5 days. On day 6, the cells are placed in the presence of the Mal16diS and Mal18diS molecules at different concentrations (1, 10 or 100 μg/mL), in a final volume of 2 mL simultaneously with a well not receiving molecules. After 24 hours, the molecules are removed and the stress inducer (H2O2, Sigma Aldrich) is added to the cell medium for 30 minutes. The cells are then rinsed with 1×PBS then lysed and recovered in RIPA buffer (Thermo Fisher). The protein extracts from the cells (10 μg) are then analysed by western blot according to the same procedure described above.
The tau phosphorylation site studied here is the S262 site (Thermo Fisher), normalized to the expression of the GAPDH protein (Sigma Aldrich). The bands are quantified using the Odyssey software of the LI-COR device allowing the p-tau/GAPDH ratio to be calculated for each of the conditions. The ratio obtained for each concentration of molecule is then expressed as a percentage of the ratio obtained for the control cells, i.e., not treated by the molecules. Thus a value less than 100% corresponds to protection provided by the molecules in this cellular model of tau phosphorylation induction.
The experiment was repeated at least 4 times for each molecule dose for the “Mal16diS” and “Mal18diS” molecules and at least twice for the “Cell16diS” and “Lac16diS” molecules. The mean and standard deviation of the replicates are shown in FIGS. 13 to 16; each of the values obtained for each dose is compared to that of the control without addition of molecule by means of a t-test. Statistical differences with p-value <0.05 and <0.001 are represented by “*” and “***” respectively.

CCCCCCCCCCCCCCCCNC(=O)[C@H](O)[C@@H](O)[C@H](O[C@H]1OC(COS(=O)(=O)[O-])[C@@H](O)C(O)[C@@H]1O)[C@H](O)COS(=O)(=O)[O-].[Na+].[Na+] (stereo partly drawn) [Mal16diS, N-Hexadecyl-6,6′-Di-O-Sulfo-D-Maltobioamide Disodium]
induction of tau protein aggregation (Thioflavin-T) [1]: induces the aggregation of tau protein more weakly compared to heparin
reduction in tau phosphorylation (S262, p-tau/GAPDH) compared to untreated cells ([2]; 1 μg/mL): 30%
reduction in tau phosphorylation (S262, p-tau/GAPDH) compared to untreated cells ([2]; 10 μg/mL): 40%
